Active and inactive are the calls of the source. Cut-off read from the data, not from the text of the source, for most assays here: actives have a measured EC50 and inactives only a lower limit.
Experiments:
[1] = biological target: T1, Fatty acid synthase (Homo sapiens, UniProt P49327); assay: inhibition of human FAS-TE enzyme activity – biochemical, endpoint fluorescence intensity, uHTS hits, dose response (AID 624327); format: functional;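 note: fluorescence from hydrolysis of an O-methyl fluorescein acyl ester substrate by the enzyme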
T1 sequence (P49327 whole entry): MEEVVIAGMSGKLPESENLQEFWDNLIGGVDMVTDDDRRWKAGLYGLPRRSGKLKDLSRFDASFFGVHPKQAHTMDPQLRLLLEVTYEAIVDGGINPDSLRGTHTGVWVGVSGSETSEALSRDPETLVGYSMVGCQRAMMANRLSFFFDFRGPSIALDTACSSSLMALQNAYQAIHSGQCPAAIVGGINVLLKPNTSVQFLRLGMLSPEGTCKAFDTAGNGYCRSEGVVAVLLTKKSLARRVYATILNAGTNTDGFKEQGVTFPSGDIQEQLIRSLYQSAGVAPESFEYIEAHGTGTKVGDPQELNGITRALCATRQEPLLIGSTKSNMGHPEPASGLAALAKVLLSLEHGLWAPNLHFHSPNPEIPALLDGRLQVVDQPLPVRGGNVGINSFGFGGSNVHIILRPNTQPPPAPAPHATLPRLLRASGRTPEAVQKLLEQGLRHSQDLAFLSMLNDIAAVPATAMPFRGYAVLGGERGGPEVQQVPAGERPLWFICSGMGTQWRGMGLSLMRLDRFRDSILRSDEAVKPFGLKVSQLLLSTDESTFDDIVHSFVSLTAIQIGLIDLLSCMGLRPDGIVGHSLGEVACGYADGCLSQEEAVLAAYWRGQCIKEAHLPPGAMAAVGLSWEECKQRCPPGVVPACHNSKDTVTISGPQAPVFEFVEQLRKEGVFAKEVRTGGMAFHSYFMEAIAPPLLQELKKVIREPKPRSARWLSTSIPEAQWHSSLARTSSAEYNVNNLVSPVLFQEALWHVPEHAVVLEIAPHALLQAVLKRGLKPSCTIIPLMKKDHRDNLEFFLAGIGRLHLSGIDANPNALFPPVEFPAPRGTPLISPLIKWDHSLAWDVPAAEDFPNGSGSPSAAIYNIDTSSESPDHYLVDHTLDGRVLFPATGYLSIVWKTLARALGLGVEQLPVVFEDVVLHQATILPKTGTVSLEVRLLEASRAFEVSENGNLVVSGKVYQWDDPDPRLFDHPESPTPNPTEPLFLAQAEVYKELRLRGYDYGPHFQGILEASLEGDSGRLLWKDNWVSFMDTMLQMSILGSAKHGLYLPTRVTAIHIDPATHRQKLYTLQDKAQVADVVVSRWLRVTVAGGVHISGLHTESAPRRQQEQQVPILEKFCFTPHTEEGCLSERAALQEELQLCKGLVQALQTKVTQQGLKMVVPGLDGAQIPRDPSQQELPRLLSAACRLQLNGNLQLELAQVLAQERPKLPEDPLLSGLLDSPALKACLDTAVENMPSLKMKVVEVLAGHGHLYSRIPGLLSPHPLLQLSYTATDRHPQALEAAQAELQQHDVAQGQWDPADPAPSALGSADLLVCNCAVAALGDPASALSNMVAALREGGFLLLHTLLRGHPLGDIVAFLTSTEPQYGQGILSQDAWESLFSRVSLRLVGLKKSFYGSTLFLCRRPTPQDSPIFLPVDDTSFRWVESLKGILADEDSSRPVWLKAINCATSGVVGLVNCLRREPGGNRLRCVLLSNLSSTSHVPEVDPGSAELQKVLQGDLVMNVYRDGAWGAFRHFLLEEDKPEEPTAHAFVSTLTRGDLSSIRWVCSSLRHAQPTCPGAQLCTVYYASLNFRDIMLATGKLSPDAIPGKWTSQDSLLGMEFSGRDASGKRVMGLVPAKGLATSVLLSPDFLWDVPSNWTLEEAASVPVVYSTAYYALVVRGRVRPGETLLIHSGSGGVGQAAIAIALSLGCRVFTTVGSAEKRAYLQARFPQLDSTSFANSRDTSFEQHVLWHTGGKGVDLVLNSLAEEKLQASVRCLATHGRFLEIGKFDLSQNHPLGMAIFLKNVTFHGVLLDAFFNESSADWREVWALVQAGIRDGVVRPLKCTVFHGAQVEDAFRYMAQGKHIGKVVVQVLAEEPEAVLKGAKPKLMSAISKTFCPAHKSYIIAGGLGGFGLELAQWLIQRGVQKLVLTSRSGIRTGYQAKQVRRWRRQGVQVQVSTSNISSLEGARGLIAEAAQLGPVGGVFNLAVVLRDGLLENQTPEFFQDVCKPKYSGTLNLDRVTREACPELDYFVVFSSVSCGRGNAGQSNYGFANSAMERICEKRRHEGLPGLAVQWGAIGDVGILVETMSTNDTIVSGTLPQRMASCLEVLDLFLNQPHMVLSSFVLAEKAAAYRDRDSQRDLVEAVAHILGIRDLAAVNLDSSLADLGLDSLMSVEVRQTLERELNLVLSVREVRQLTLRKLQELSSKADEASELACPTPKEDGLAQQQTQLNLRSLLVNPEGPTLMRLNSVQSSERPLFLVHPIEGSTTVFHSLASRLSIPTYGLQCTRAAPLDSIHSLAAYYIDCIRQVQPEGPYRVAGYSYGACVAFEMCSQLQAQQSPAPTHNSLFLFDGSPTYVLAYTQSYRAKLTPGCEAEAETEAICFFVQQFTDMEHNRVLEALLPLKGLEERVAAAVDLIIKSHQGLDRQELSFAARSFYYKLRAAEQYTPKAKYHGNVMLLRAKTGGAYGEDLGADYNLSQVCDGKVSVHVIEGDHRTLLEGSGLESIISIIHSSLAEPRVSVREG

[2] = biological target: T1, Fatty acid synthase; assay: inhibition of human FAS-TE enzyme activity – biochemical, kinetic fluorescence intensity, dose response (AID 624326); format: functional;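 note: rate of fluorescence rise from hydrolysis of a fluorogenic O-methyl fluorescein ester substrate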
[3] = Luminescence Cell-Based Dose Retest to Confirm Inhibitors of Cancer Stem Cells. [Related pubchem assays (depositor defined):AID2717, AID2721]; format: functional; details: Homo sapiens
[4] = biological target: T2, Heat shock factor protein 1 (Mus musculus, UniProt P38532); assay: enhancement of HSF1-driven luciferase signal – cell-based, NIH3T3, luminescence, dose retest, confirmation (AID 435004); format: functional;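 note: stress induced by proteasome inhibitor MG132 added 30 min after compound; luciferase reporter driven by HSF1 response element in NIH3T3 cells; actives raise luminescence as potentiators of the MG132 stress response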
T2 sequence (P38532 whole entry): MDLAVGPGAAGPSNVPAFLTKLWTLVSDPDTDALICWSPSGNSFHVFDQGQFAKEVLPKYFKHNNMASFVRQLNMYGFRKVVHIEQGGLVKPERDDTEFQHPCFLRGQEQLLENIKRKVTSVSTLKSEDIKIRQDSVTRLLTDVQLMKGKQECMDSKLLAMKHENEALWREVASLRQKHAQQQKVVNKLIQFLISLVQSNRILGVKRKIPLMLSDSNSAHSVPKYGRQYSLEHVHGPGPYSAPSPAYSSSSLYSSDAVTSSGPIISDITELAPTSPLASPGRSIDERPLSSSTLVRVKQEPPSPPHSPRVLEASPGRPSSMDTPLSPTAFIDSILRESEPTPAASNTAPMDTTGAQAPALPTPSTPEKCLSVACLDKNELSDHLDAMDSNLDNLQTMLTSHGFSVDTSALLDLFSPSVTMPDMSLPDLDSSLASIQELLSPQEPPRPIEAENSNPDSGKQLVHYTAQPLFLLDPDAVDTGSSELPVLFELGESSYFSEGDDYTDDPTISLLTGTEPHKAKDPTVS

[5] = NIH-3T3 fibroblast cytotoxicity, dose response, cytotoxicity control, cell-based, fluorescence, Alamar Blue, secondary assay (AID 2327); format: functional;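 note: NIH-3T3 mouse fibroblasts cultured with fluconazole at 8 µg/mL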
[6] = fluconazole-exposed Candida albicans growth modulators – fluorescence, retest, confirmation (AID 2467); format: functional, cell-based
[7] = tested on: H9c2; assay: cells; format: functional, cell-based; details: Rattus norvegicus, H9c2, Myocardium;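 note: confirmatory concentration-response retest of ultra-high-throughput screening hits for modulation of myocardial damage; cell death induced by hydrogen peroxide oxidative stress; compound pretreatment for 60 min then peroxide exposure for 2 h; potency is for protecting the cells against peroxide damage rather than for killing them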
[8] = Trypanosoma cruzi growth suppression in host cells – NIH3T3 host cells, beta-gal luminescence, confirmation (AID 2044); format: functional, cell-based;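 note: intracellular parasites grown in NIH/3T3 mouse fibroblasts as host cells; luminescent beta-galactosidase reporter signal from transgenic T. cruzi replicating inside host cells; inhibitors lower the luminescence signal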
[9] = NIH3T3 cell viability loss – ATP luminescence, mouse fibroblasts, counter-screen, dose response (AID 2010); format: functional, cell-based;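 note: cells exposed to compound for about 90 hours before reading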
[10] = cells; format: functional
[11] = Luminescence Cell-Based Dose Confirmation HTS to Identify Activators of 5'UTR Stem-Loop Driven Alpha-Synuclein mRNA Translation in H4 Neuroglioblastoma Cells. [Related pubchem assays: 1829 (Project Summary), 1814 (Primary HTS)]; format: functional
[12] = Luminescence Cell-Based Dose Response HTS to Identify Activators of Luciferase Translation or Activity in H4 […] Cells. [Related pubchem assays: 1829 (Project Summary), 1814 (Primary HTS)]; format: functional
[13] = tested on: H4; assay: Luminescence Cell-Based Dose Response HTS to Identify Activators of 5'UTR Stem-Loop Driven Prion Protein mRNA Translation in H4 Neuroglioblastoma Cells. [Related pubchem assays: 1829 (Project Summary), 1814 (Primary HTS)]; format: functional; details: Homo sapiens
[14] = biological target: T2, Heat shock factor protein 1; assay: decrease of HSF1-responsive luciferase luminescence – cell-based, NIH3T3, dose retest, confirmation (AID 2382); format: functional;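 note: NIH3T3 fibroblasts with HSF1-driven luciferase reporter stressed by proteasome inhibitor MG132; luminescence from HSF1-driven luciferase expression after 8 hours of MG132 stress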
[15] = tested on: Streptococcus sp. 'group A'; assay: Streptococcus pyogenes SK(-)GAS viability under kanamycin – luminescence, BacTiterGlo, confirmation, counter-screen for streptokinase expression inhibitor project, dose response (AID 1900); format: functional, organism-based
[16] = biological target: T3, Streptokinase A (Streptococcus pyogenes serotype M1, UniProt P10520); assay: viability-normalized secreted streptokinase activity reduction – plasminogen activation absorbance, OD405, dose response (AID 1914); format: functional, Streptococcus pyogenes M1 GAS;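 note: secreted streptokinase activity via plasminogen activation per viability signal from cell pellet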
T3 sequence (P10520 whole entry): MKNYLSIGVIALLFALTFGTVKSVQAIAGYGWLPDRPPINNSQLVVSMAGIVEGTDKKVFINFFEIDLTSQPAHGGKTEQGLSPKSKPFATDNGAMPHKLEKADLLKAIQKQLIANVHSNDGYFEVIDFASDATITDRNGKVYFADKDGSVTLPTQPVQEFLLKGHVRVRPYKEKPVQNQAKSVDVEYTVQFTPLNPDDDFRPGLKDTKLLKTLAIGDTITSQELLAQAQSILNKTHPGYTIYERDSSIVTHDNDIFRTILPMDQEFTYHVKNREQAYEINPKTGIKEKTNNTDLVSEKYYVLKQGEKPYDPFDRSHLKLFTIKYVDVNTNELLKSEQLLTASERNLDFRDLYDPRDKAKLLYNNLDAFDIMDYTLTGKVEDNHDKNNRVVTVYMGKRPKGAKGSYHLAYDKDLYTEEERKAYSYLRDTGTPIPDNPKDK

[17] = tested on: Streptococcus; assay: GAS UMAA2166 growth inhibition – luminescence, BacTiterGlo, counter-screen for streptokinase expression inhibitor project, dose response (AID 1915); format: functional, organism-based;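 note: potency for reduction of bacterial viability or growth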
[18] = biological target: FAD-linked sulfhydryl oxidase ALR (Homo sapiens, UniProt P55789); assay: ALR-catalysed DTT oxidation blockers – biochemical, H2O2 detection, luminescence, cherry-pick, dose response (AID 493248)
Chain of FAD-linked sulfhydryl oxidase ALR (P55789 whole entry): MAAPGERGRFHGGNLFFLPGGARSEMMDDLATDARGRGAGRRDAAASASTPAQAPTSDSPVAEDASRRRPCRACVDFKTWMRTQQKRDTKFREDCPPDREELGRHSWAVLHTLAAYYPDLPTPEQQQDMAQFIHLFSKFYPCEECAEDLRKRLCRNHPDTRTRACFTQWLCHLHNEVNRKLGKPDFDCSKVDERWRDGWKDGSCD

[19] = viability of HCT116 lacking mutant beta-catenin – cell-based, human colon tumor, dose response (AID 1045); format: functional;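 note: HCT116 colon tumor cells with beta catenin knocked out; cells exposed to compound for 60 hours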
[20] = biological target: Large T antigen (Simian virus 40, UniProt P03070); format: functional, Betapolyomavirus macacae;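 note: Confirmatory-stage PubChem screen for compounds that inhibit SV40 T antigen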
Chain of Large T antigen (P03070 whole entry): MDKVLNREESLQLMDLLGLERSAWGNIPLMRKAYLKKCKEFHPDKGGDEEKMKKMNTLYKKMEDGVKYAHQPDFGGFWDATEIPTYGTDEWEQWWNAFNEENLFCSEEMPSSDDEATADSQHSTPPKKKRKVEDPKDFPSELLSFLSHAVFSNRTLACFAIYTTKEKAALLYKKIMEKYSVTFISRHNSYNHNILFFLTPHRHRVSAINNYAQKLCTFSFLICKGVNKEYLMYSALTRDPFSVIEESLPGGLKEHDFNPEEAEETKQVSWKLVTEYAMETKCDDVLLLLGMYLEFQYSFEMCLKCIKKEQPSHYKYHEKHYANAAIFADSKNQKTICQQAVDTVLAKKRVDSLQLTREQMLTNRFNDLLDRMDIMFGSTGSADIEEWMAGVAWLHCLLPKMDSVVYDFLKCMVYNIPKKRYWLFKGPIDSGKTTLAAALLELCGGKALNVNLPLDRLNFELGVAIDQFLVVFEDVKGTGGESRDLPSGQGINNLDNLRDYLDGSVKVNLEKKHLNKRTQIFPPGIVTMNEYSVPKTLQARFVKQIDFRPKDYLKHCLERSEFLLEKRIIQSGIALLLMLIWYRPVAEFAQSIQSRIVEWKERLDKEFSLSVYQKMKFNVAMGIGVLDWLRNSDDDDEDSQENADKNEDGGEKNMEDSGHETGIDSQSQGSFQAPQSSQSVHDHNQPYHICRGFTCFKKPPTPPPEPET

[21] = P. falciparum Dd2 growth inhibitors, dose response, SYBR Green, cherry-picked samples (AID 1159567); format: functional, cell-based

Cc1csc(NC(=O)CCNC(=O)c2ccc([N+](=O)[O-])cc2)n1
IC50 [1]: 6.85 µM (active)
IC50 [2]: 7.66 µM (active)

O=C(c1ccco1)c1nnn(Cc2ccccc2)c1-c1ccccc1
AC50 [3]: 3.72 µM (active)
EC50 [4]: > 260 µM (inactive)

O=S(=O)(Cc1ccccc1)N1CCc2ccccc21
EC50 [5]: > 160 µM (inactive)
EC50 [6]: 1.56 µM (active)

NC(=O)c1ccc(NC(=O)COc2cccc3c2CCNC3=O)cc1
IC50 [7]: > 79 µM (inactive)

O=C(CNC(=O)c1[nH]cnc1C(=O)NCc1ccccc1)OCc1ccccc1
IC50 [7]: 40.4 µM (inactive)

COc1cc(-n2c(=O)c3ccccc3n(Cc3cc(=O)n4ccccc4n3)c2=O)cc(OC)c1OC
IC50 [7]: 18.7 µM (active)

COc1ccc2c(c1)sc(=N)n2C
EC50 [8]: 0.122 µM (active)
EC50 [9]: > 60 µM (inconclusive)
IC50 [10]: 30 µM (active)

Oc1ccc(-c2csc(-c3c[nH]c4ccccc34)n2)c(O)c1
EC50 [11]: 0.115 µM (active)
EC50 [12]: 4.35 µM (inconclusive)
EC50 [13]: 10.2 µM (active)

O=C(COC(=O)c1ccc(Cl)c([N+](=O)[O-])c1)NC1CCCC1
IC50 [1]: 3.12 µM (active)
IC50 [2]: 3.41 µM (active)

CCCN1CCN(C(=O)c2ccc(Sc3ccc(C)cc3)c(NC(C)=O)c2)CC1
EC50 [4]: > 260 µM (inactive)

O=C(c1ccccc1)c1c[nH]c(C(=O)NNc2ccccc2)c1
EC50 [5]: 28.3 µM (active)
EC50 [6]: > 38 µM (not active)
EC50 [8]: 1.71 µM (active)
EC50 [9]: 7.46 µM (active)
AC50 [3]: 1.09 µM (active)

Cc1ccc(NC(=O)CCS(=O)(=O)c2ccc3c(c2)NC(=O)C(C)S3)nc1 (stereo not given)
EC50 [4]: > 260 µM (inactive)

O=C(Cc1ccc(O)cc1)NC1CCCCCC1
EC50 [11]: 47.4 µM (active)
EC50 [12]: 52 µM (active)
EC50 [13]: 16.8 µM (active)
EC50 [14]: > 195 µM (not active)

COc1ccc([N+](=O)[O-])cc1C(=O)Nc1ccc(Cc2ccncc2)cc1
IC50 [1]: 10.9 µM (active)
IC50 [2]: 11.5 µM (active)

O=C1c2cccc3cccc(c23)C(=O)N1OS(=O)(=O)c1ccccc1
EC50 [4]: > 260 µM (inactive)

Cc1ccc(C(=O)CC(=O)c2ccccc2C)c(O)c1
EC50 [5]: > 150 µM (inactive)
EC50 [15]: 6.61 µM (active)
EC50 [16]: > 150 µM (not active)
EC50 [6]: > 38 µM (not active)
EC50 [17]: 9.83 µM (active)

COC(=O)c1ccc(CNC(=O)/C=C/c2cc([N+](=O)[O-])ccc2OC(F)F)cc1
IC50 [1]: 3.27 µM (active)
IC50 [2]: 4.91 µM (active)

CCN(CC)c1ccc(C(=O)OCC(=O)c2ccco2)cc1
EC50 [11]: 14.1 µM (active)
EC50 [12]: 94 µM (active)
EC50 [13]: 57.4 µM (active)

N#C/C(=C\c1ccc(-c2cccc([N+](=O)[O-])c2)o1)C(=O)NCCN1CCOCC1
IC50 [7]: > 79 µM (inactive)

CC(C)(C)c1ccc(CSc2ccc(S(=O)(=O)N3CCOCC3)cn2)cc1
IC50 [1]: 1.03 µM (active)
IC50 [2]: 0.683 µM (active)

COc1ccc(Cn2c(C)nc3ccc([N+](=O)[O-])cc3c2=O)cc1
IC50 [1]: 4.97 µM (active)
IC50 [2]: 3.61 µM (active)

C[n+]1c(-c2ccccc2)cc(-c2ccc(Cl)cc2)cc1-c1ccccc1.[O-][Cl+3]([O-])([O-])[O-]
EC50 [5]: > 160 µM (inconclusive)
EC50 [6]: 0.756 µM (active)

O=C(CCCN1C(=O)c2cccc3cccc(c23)C1=O)Nc1ccon1
EC50 [4]: > 260 µM (inactive)

Cn1ncc(Cl)c1C(=O)NNC(=O)Nc1cccc2ccccc12
EC50 [5]: > 160 µM (inactive)
EC50 [6]: > 38 µM (not active)

CCCc1cc(O)nc(SCC(=O)Nc2ccc(C)cc2)n1
EC50 [4]: > 260 µM (inactive)

COc1cccc(-c2nnc(SCc3cccnc3)o2)c1
EC50 [11]: 43.2 µM (active)
EC50 [12]: 33.1 µM (active)
EC50 [13]: 12.2 µM (active)

Cc1csc(Nc2ccccc2)[n+]1-c1ccccc1
EC50 [11]: > 120 µM (not active)
EC50 [12]: > 30 µM (not active)
EC50 [13]: 6.74 µM (active)
AC50 [18]: 1.14 µM (active)

O=C(CCN1CCCCCC1)c1ccccc1
AC50 [18]: 5.85 µM (active)
IC50 [10]: 41 µM (active)

CCN(CC)CCn1c2c(c(SCC(=O)Nc3cccc(C(C)=O)c3)nc1=O)CCCC2
IC50 [7]: > 79 µM (inactive)

O=C(CSc1nc(O)c2ccccc2n1)N1CCCCCC1
IC50 [7]: 33 µM (inactive)

O=C(NCCc1c[nH]c2ccccc12)c1ccc(Cl)cc1
EC50 [11]: 21.9 µM (active)
EC50 [12]: > 120 µM (not active)
EC50 [13]: > 120 µM (not active)

CNc1nnc(Sc2ncccc2[N+](=O)[O-])s1
IC50 [10]: 7.5 µM (active)

CSCCC(NC(=O)c1ccc(Cl)c([N+](=O)[O-])c1)C(=O)N1CCN(C/C=C/c2ccccc2)CC1 (stereo not given)
IC50 [1]: 8.52 µM (active)
IC50 [2]: 6.62 µM (active)

CC1CC(C)CN(C(=O)COC(=O)c2cc([N+](=O)[O-])ccc2N2CCOCC2)C1 (stereo not given)
IC50 [1]: 1.3 µM (active)
IC50 [2]: 1.22 µM (active)

CN(C(=O)COC(=O)c1cc([N+](=O)[O-])ccc1N1CCOCC1)C1CCCCC1
IC50 [1]: 0.383 µM (active)
IC50 [2]: 0.41 µM (active)

CC(=O)Nc1cc(-c2ccc(C(=O)N3CCOCC3)cc2)cn2c(-c3ccc(C(C)=O)cc3)cnc12
IC50 [7]: > 79 µM (inactive)

O=C(COC(=O)Cc1nnc(O)c2ccccc12)NNC(=O)c1ccc(Br)cc1
IC50 [7]: > 79 µM (inactive)

COc1ccc(C(=O)Nc2cccc(/C(C)=N/NC(=O)c3ccc([N+](=O)[O-])c(C)c3)c2)cc1OC
IC50 [7]: > 79 µM (inactive)

CC(/C=N/Nc1n[nH]c2c3ccccc3nc-2n1)=C\c1ccco1
EC50 [11]: 11 µM (active)
EC50 [12]: 17.6 µM (active)
EC50 [13]: 15.5 µM (active)

CCOc1cc(/C=N/O)ccc1OS(=O)(=O)c1ccc(C)cc1
EC50 [19]: 312 µM (active)

O=C(CN1c2ccccc2Sc2ccccc21)N/N=C/c1ccc(Cl)cc1
EC50 [4]: > 260 µM (inactive)

COc1cc(/C=N/NC(=O)CSc2ccccn2)ccc1O
IC50 [20]: 9.69 µM (active)

O=C1CCCC/C1=N\Nc1ccc(OCc2ccccc2)cc1
EC50 [5]: > 160 µM (inconclusive)
EC50 [6]: > 38 µM (not active)

COc1ccc2c3c([nH]c2c1)[C@H](CO)N(Cc1ccc(F)cc1)CC31CCN(Cc2ccccn2)CC1
AC50 [21]: 2.95 µM (active)

CCC(=O)N1CC2(C1)CN(Cc1cc(F)ccc1F)[C@@H](CO)c1[nH]c3cc(OC)ccc3c12
AC50 [21]: 7.9 µM (active)

C/C=C/c1ccc2c(c1)[C@H]1[C@H](CCN1C(=O)C1CCCC1)[C@@H](CO)N2
AC50 [21]: 4.97 µM (active)

C/C=C/c1ccc([C@H]2[C@@H](CO)N(CC3CCCC3)C23CN(C(=O)CC2CC2)C3)cc1
AC50 [21]: 4.55 µM (active)

N#Cc1ccc(-c2ccc3c(c2)[C@H]2[C@H](CCN2C(=O)C2CCCC2)[C@H](CO)N3)cc1
AC50 [21]: 4.55 µM (active)

O=C1C2CCCCN2C(=O)N1CCCN1CCN(c2ccc(F)cc2)CC1 (stereo not given)
EC50 [4]: > 260 µM (inactive)

— ChEMBL document CHEMBL1201862, “PubChem BioAssay data set” (2004)
